Test results reported in ChEMBL document CHEMBL1137707, “First-principle, structure-based prediction of hepatic metabolic clearance values in human” (Eur J Med Chem, 2009).

How the values were obtained:
[1] = (§1) Hepatic clearance in human hepatocytes in absence of fetal calf serum
Hepatocyte = test: as §1; conditions: hepatocytes

C[C@H]1C[C@@H]2[C@H]([C@@H](O)C[C@@]3(C)[C@H]2CC[C@]3(O)C(=O)CO)[C@@]2(C)C=CC(=O)C=C12 [METHYLPREDNISOLONE]
CLhep predicted ([1]; human hepatocytes): 7.5 mL/min/kg | logCL (Hepatocyte): 0.8751

CC(C)(O)c1ccccc1CC[C@@H](SCC1(CC(=O)O)CC1)c1cccc(/C=C/c2ccc3ccc(Cl)cc3n2)c1 [MONTELUKAST]
CLhep predicted ([1]; human hepatocytes): 1.27 mL/min/kg | logCL (Hepatocyte): 0.1038

CCCCC1=NC2(CCCC2)C(=O)N1Cc1ccc(-c2ccccc2-c2nnn[nH]2)cc1 [IRBESARTAN]
CL (Hepatocyte): 3.85 mL/min/kg | logCL (Hepatocyte): 0.5855

CC(=O)CC(c1ccccc1)c1c(O)c2ccccc2oc1=O (stereo unspecified) [WARFARIN]
CLhep predicted ([1]; human hepatocytes): 0.16 mL/min/kg | logCL (Hepatocyte): -0.7959

C=CCN1CC[C@]23c4c5ccc(O)c4O[C@H]2C(=O)CC[C@@]3(O)[C@H]1C5 [NALOXONE]
CLhep predicted ([1]; human hepatocytes): 19.5 mL/min/kg | logCL (Hepatocyte): 1.29

CCCc1nn(C)c2c(=O)[nH]c(-c3cc(S(=O)(=O)N4CCN(C)CC4)ccc3OCC)nc12
logCL (Hepatocyte): 0.7782

Cc1cn([C@H]2C[C@H](N=[N+]=[N-])[C@@H](CO)O2)c(=O)[nH]c1=O [ZIDOVUDINE]
CLhep predicted ([1]; human hepatocytes): 12.4 mL/min/kg | logCL (Hepatocyte): 1.0934

Cc1nccn1CC1CCc2c(c3ccccc3n2C)C1=O (stereo unspecified) [ONDANSETRON]
CLhep predicted ([1]; human hepatocytes): 5.9 mL/min/kg | logCL (Hepatocyte): 0.7709

Cn1c(=O)c2[nH]cnc2n(C)c1=O.O [THEOPHYLLINE]
CLhep predicted ([1]; human hepatocytes): 0.65 mL/min/kg | logCL (Hepatocyte): -0.1871

COc1ccc([C@@H]2Sc3ccccc3N(CCN(C)C)C(=O)[C@@H]2OC(C)=O)cc1 [DILTIAZEM]
CLhep predicted ([1]; human hepatocytes): 12.8 mL/min/kg | logCL (Hepatocyte): 1.1072

Cn1c(=O)c2c(ncn2C)n(C)c1=O [CAFFEINE]
CLhep predicted ([1]; human hepatocytes): 1.4 mL/min/kg | logCL (Hepatocyte): 0.1461

CCN(CC)CC(=O)Nc1c(C)cccc1C [LIDOCAINE]
logCL (Hepatocyte): 1.1761

C[C@]12C=CC(=O)C=C1CC[C@@H]1[C@@H]2[C@@H](O)C[C@@]2(C)[C@H]1CC[C@]2(O)C(=O)CO [PREDNISOLONE]
CLhep predicted ([1]; human hepatocytes): 8.7 mL/min/kg | logCL (Hepatocyte): 0.9395

Cc1ccc(C)c(OCCCC(C)(C)C(=O)O)c1 [GEMFIBROZIL]
CLhep predicted ([1]; hepatocytes): 3.09 mL/min/kg | logCL (Hepatocyte): 0.49

CCc1cccc2c3c([nH]c12)C(CC)(CC(=O)O)OCC3 (stereo unspecified) [ETODOLAC]
CLhep predicted ([1]; human hepatocytes): 1.31 mL/min/kg | logCL (Hepatocyte): 0.1173

O=C(O)Cc1ccccc1Nc1c(Cl)cccc1Cl [DICLOFENAC]
CLhep predicted ([1]; hepatocytes): 7.33 mL/min/kg | logCL (Hepatocyte): 0.8651

Cc1c(C)c2c(c(C)c1O)CCC(C)(COc1ccc(CC3SC(=O)NC3=O)cc1)O2 (stereo unspecified) [TROGLITAZONE]
CLhep predicted ([1]; human hepatocytes): 9 mL/min/kg | logCL (Hepatocyte): 0.9542

O=C1CC2(CCCC2)CC(=O)N1CCCCN1CCN(c2ncccn2)CC1 [BUSPIRONE]
CLhep predicted ([1]; human hepatocytes): 19.2 mL/min/kg | logCL (Hepatocyte): 1.2833

CN1C2CCCC1CC(NC(=O)c1nn(C)c3ccccc13)C2 (stereo unspecified) [GRANISETRON]
CLhep predicted ([1]; human hepatocytes): 11 mL/min/kg | logCL (Hepatocyte): 1.0414

O=C1Nc2ccc(Cl)cc2C(c2ccccc2Cl)=NC1O (stereo unspecified) [LORAZEPAM]
CLhep predicted ([1]; human hepatocytes): 1.1 mL/min/kg | logCL (Hepatocyte): 0.0414

Cc1ncc2n1-c1ccc(Cl)cc1C(c1ccccc1F)=NC2 [MIDAZOLAM]
CLhep predicted ([1]; hepatocytes): 6.6 mL/min/kg | logCL (Hepatocyte): 0.8195

CCOc1ccc(NC(C)=O)cc1 [PHENACETIN]
logCL (Hepatocyte): 1.2833

CC(C)c1nc(CN(C)C(=O)N[C@H](C(=O)N[C@@H](Cc2ccccc2)C[C@H](O)[C@H](Cc2ccccc2)NC(=O)OCc2cncs2)C(C)C)cs1 [RITONAVIR]
CLhep predicted ([1]; human hepatocytes): 1.2 mL/min/kg | logCL (Hepatocyte): 0.0792

COc1ccc2c(c1)c(CC(=O)O)c(C)n2C(=O)c1ccc(Cl)cc1 [INDOMETHACIN]
CLhep predicted ([1]; human hepatocytes): 2.24 mL/min/kg | logCL (Hepatocyte): 0.3502

CCCCNC(=O)NS(=O)(=O)c1ccc(C)cc1 [TOLBUTAMIDE]
CLhep predicted ([1]; hepatocytes): 0.3 mL/min/kg | logCL (Hepatocyte): -0.5229

CC(C)(C)NC[C@H](O)COc1nsnc1N1CCOCC1 [TIMOLOL]
CLhep predicted ([1]; hepatocytes): 9.17 mL/min/kg | logCL (Hepatocyte): 0.9624

CN1C(C(=O)Nc2ccccn2)=C(O)c2sccc2S1(=O)=O [TENOXICAM]
CLhep predicted ([1]; hepatocytes): 0.073 mL/min/kg | logCL (Hepatocyte): -1.1367

O=C(O)c1cc(-c2ccc(F)cc2F)ccc1O [DIFLUNISAL]
CLhep predicted ([1]; hepatocytes): 0.18 mL/min/kg | logCL (Hepatocyte): -0.7447

CN1C(=O)CN=C(c2ccccc2)c2cc(Cl)ccc21 [DIAZEPAM]
logCL (Hepatocyte): -0.3665

CC(C(=O)O)c1cccc(Oc2ccccc2)c1 (stereo unspecified) [FENOPROFEN]
logCL (Hepatocyte): 0.2279

CN(C)CCCN1c2ccccc2Sc2ccc(Cl)cc21 [CHLORPROMAZINE]
CL (Hepatocyte): 8.6 mL/min/kg | logCL (Hepatocyte): 0.9345

COCCc1ccc(OCC(O)CNC(C)C)cc1 (stereo unspecified) [METOPROLOL]
CLhep predicted ([1]; human hepatocytes): 12.2 mL/min/kg | logCL (Hepatocyte): 1.0846

COc1ccccc1OCCNCC(O)COc1cccc2[nH]c3ccccc3c12 (stereo unspecified) [CARVEDILOL]
CLhep predicted ([1]; hepatocytes): 8.7 mL/min/kg | logCL (Hepatocyte): 0.9395
